# Earlier results in patent publication US20230086007A1, “USE OF DENATONIUM BENZOATE AS A SEED TREATMENT FOR CROPS AS BIRD AND/OR INSECT REPELLENT” (KWS SAAT SE & Co. KGaA, priority 2020, published 2023).
# Test system: maize
# Details: maize seed treatment; cited from earlier work
structure (smiles),measurement,value
CN(C)C(=S)SSC(=S)N(C)C [Thiram],effect on early seedling vigour,significant reduction in early seedling vigour
